Data reported in patent US11116774B2, “Modulators of toll-like receptors for the treatment of HIV” (Gilead Sciences, Inc., priority 2014, dated 2021).
Values joined by “and” are separate entries in the source; they are usually repeats but may differ in a detail not shown here. Equal values may be shown once.

Assays:
[1] = system: polyfunctional proliferating CD8 T cells (CFSE low, IFNg+, TNFa+); test: Induction of HIV-specific polyfunctional CD8 T cells by combination with an IDO1 inhibitor (Example 217); assay type: cell-based, human; conditions: 0.1 uM; PBMCs from 4 HIV-infected donors; 8 days
Protocol: PBMCs from 4 HIV-infected donors (Donor IDs 180-183) on suppressive cART were isolated, as described previously, stained with CFSE, and treated with 500 ng/ml 15-mer peptide pools derived from overlapping HIV gag, pol, nef, and env consensus peptides (JPT Peptide Technologies GmbH). PBMC cultures were treated with DMSO or the compound of Example 49 (GS-9620) at 0.1 uM. In some cultures treated with Example 49, the IDO1 small molecule inhibitor, INCB024360, was combined at 2 μM. Cells were incubated at 37° C. for 8 days, then split into duplicate sets and stained in DPBS with LIVE/DEAD Fixable Aqua Dead Cell Stain (Life Technologies). The immune recall response was performed as previously described. FACS was performed on a LSR Fortessa (BD Biosciences) and data analysis was done with FlowJo software (TreeStar). Data was plotted and statistical analysis was done with GraphPad Prism software (GraphPad).

[2] = system: peripheral CD8 lymphocytes (CD3+CD8+CD4−); test: Peripheral lymphocyte activation, CD69 by flow cytometry: CD8 lymphocytes (Example 206); assay type: in vivo, rhesus macaque
Text: During the course of treatment with the compound of Example 4 as described in Example 204, peripheral lymphocyte activation was monitored in the groups dosed with the compound of Example 4 or the dosing vehicle of Example 201 (placebo), by measuring the expression of the early activation marker CD69 on various lymphocyte subsets by flow cytometry methodology. This methodology was used to quantify the percentage of immune cell subsets expressing the early activation marker. Standard data acquisition techniques were employed on a flow cytometer and by the use of antibodies conjugated to fluorescent molecules where the antibodies recognize rhesus macaque cell surface proteins on various immune cell subsets. In animals dosed with the compound of Example 4, whole blood samples were collected for each dose at various time points both at pre- and post-administration of compound. Total PBMCs were stained in the whole blood samples using antibodies that were chosen to be reactive to rhesus CD3, CD4, CD8, NKG2A, CD16 and CD56, each conjugated to different fluorescent probes to delineate CD3+CD4+CD8− lymphocytes, CD3+CD4−CD8+ lymphocytes and CD3-CD8+ NKG2A+CD16+ CD56+ NK cells. The flow cytometry data presented herein are from animals treated with the compound of Example 4.

SIVmac251 = test: TLR7 modulating compound in cART treated SIV+ rhesus with undetectable plasma viremia: plasma SIV RNA during dosing and after cART cessation (Example 204); assay type: in vivo, Indian rhesus macaques (Macaca mulatta); conditions: for Plasma SIV RNA: 0.3 mg/kg oral, on cART
Protocol: A group of 10 Indian rhesus macaques (Macaca mulatta) were treated with the compound of Example 4 or dosing vehicle of Example 201 (placebo group) in a multiple dose, dose escalation study. The macaques were infected with simian immunodeficiency virus (SIVmac251) by repeat low-dose rectal mucosal challenge. Beginning on day 65 post-infection, after establishment of peak viremia and an early viral chronic set point, the animals were treated with a the cART by sub-cutaneous injection at 1 mL/kg, the administration of which was for approximately one year. During the time of cART administration plasma viral loads decreased to undetectable levels (SIV gag RNA<50 copies/mL) by Day 168 post-infection, and were maintained for approximately 5 months prior to administration of the compound of Example 4 by use of daily cART. In addition, animals were maintained on the same cART regimen when dosed with the compound of Example 4. The amount of antiretrovirals administered to each animal, on a daily basis, in the cART formulation were 20 mg/kg tenofovir, 50 mg/kg emtricitibine (FTC), and 2.5 mg/kg dolutegravir. The animals were administered cART daily from approximately day 65 post-infection, through viral suppression and administration of the compound of Example 4 until approximately two weeks post-last dose of the compound from Example 4 at which time cART was stopped to monitor plasma viral load rebound kinetics.
Beginning on Day 317 post-infection, the animals were dosed once every other week with either the compound of Example 4 or dosing vehicle of Example 201 (placebo group). Four animals were dosed with the compound of Example 4, prepared as described in Example 201. The first week, 1 mL/kg of the 0.1 mg/mL formulation was dosed, corresponding to a dose of 0.1 mg/kg. The third week, 1 mL/kg of the 0.2 mg/mL formulation was dosed, corresponding to a dose of 0.2 mg/kg. On weeks five through thirteen, 1 mL/kg of the 0.3 mg/mL formulation was dosed, corresponding to a dose of 0.3 mg/kg (seven doses in total). The other six animals were controls, of which three were given seven doses of saline by oral gavage once every two weeks; the other three animals were left untreated. Approximately two weeks following the last dose of the compound of Example 4, cART was stopped in the three saline-dosed placebo animals and the four animals who had received the compound of Example 4. Approximately one month later, cART was stopped in the three untreated control animals. Following cART cessation viral loads were monitored for a period of six months.
Each formulation of the compound of Example 4 or dosing vehicle of Example 201 was thawed at room temperature prior to dosing. Animals were dosed by oral gavage via nasogastric tube.
Plasma viral loads (expressed as SIV RNA copies per mL of plasma) were determined by quantitative RT-PCR of the SIV RNA measuring the gag gene transcripts at various times throughout the study. Viral loads for each animal for each study day relative to time of administration of the first dose of the compound of Example 4 are depicted in FIG. 3; dosing days are shown by the arrows on the horizontal x-axis.
After two weeks following the last dose of study drug, cART therapy was also stopped in all dosed (placebo dosed included) animals. In the untreated control group of animals, cART was stopped 30 days later. Table 2 denotes the average viral load chronic set point from day 42-81 following cessation of cART for each of the animals in the study. […] However, when comparing the pre-cART plasma SIV RNA chronic set point to the post-cART cessation chronic set point within the animals administered the compound of Example 4 this was approximately ˜0.5 log10 lower (mean change for all animals treated with the compound of Example 4) than the change observed in those animals in the placebo group (mean change for all animals administered dosing vehicle of Example 201).

CCCCOc1nc(N)c2c(n1)N(Cc1cccc(CN3CCCC3)c1)CC(=O)N2 [Example 49]
increase of mean level of polyfunctional proliferating CD8 T cells compared to DMSO [1]: 2.9 fold

CCCCOc1nc(N)c2c(n1)N(Cc1ccc(CN3CCCC3)cc1)CC(=O)N2 [Example 4]
mean maximum percent change in CD69 expression on CD8 lymphocytes ([2]; all subsequent 0.3 mg/kg doses): 15.5%
mean maximum percent change in CD69 expression on CD8 lymphocytes ([2]; dose 0.1 mg/kg, any time point (rise 24 to 72 hours post-dose), pre-dose range 3.3-12.6%): 7.8%
mean maximum percent change in CD69 expression on CD8 lymphocytes ([2]; dose 0.2 mg/kg, pre-dose range 3.0-15.7%): 9.5%
mean maximum percent change in CD69 expression on CD8 lymphocytes ([2]; first dose of 0.3 mg/kg, pre-dose range 5.0-14.4%): 17.3%
Plasma SIV RNA (SIVmac251; Dose 4, 1 day post-dose): <50 copies/mL
Plasma SIV RNA (SIVmac251; Dose 4, 3 days post-dose): <50 copies/mL
Plasma SIV RNA (SIVmac251; Dose 4, 7 days post-dose): <50 copies/mL
Plasma SIV RNA (SIVmac251; Dose 4, Pre): <50 copies/mL
Plasma SIV RNA (SIVmac251; Dose 5, 2 days post-dose): 344 copies/mL and 361 copies/mL and 563 copies/mL and 623 copies/mL
Plasma SIV RNA (SIVmac251; Dose 5, 7 days post-dose): <50 copies/mL
Plasma SIV RNA (SIVmac251; Dose 5, Pre): <50 copies/mL
Plasma SIV RNA (SIVmac251; Dose 6, 7 days post-dose): <50 copies/mL
Plasma SIV RNA (SIVmac251; Dose 6, Pre): <50 copies/mL
Plasma SIV RNA (SIVmac251; Dose 7, 7 days post-dose): <50 copies/mL
Plasma SIV RNA (SIVmac251; Dose 7, Pre): <50 copies/mL
time virus levels remained undetectable after the last dose (SIVmac251; SIV+ rhesus on cART): 13 days
plasma virus levels returned to baseline prior to the following dose (SIVmac251; SIV+ rhesus on cART, 0.3 mg/kg doses): < 50 copies per mL
time after dose at which detectable plasma virus was observed (SIVmac251; SIV+ rhesus on cART, after each of the last three doses at 0.3 mg/kg, oral, once every other week): 24 to 72 h
pre-cART to post-cART cessation plasma SIV RNA chronic set point change, lower than the change in the placebo group (SIVmac251; mean change for all treated animals, set point day 42-81 following cessation of cART): ~0.5 log10
Mean Change in Chronic Set Point (SIVmac251; mean of the four dosed animals): −1.26 -log10 copy/mL
Plasma SIV RNA Chronic Set Point Day 42-81 Post-cART Cessation (SIVmac251; per animal, after seven doses (0.1, 0.2, 0.3 mg/kg) every other week): 3,553 copy/mL and 10,062 copy/mL and 20,146 copy/mL and 24,527 copy/mL
Plasma SIV RNA Chronic Set Point Day 42-63 Pre-cART (SIVmac251; per animal, baseline before cART and before dosing): 237,667 copy/mL and 76,833 copy/mL and 156,333 copy/mL and 666,333 copy/mL
Change in Chronic Set Point (SIVmac251; per animal, post-cART cessation versus pre-cART): −1.83 -log10 copy/mL and −0.88 -log10 copy/mL and −0.89 -log10 copy/mL and −1.43 -log10 copy/mL
